Experimental data as given in ChEMBL document CHEMBL4732263 (Bioorg Med Chem, 2021).
≈ marks a conversion by molar mass, not a printed value.

Key:
[1] = Volume of distribution at steady state in Balb/C mouse plasma at 1.9 mg/kg, iv up to 24 hrs by LC-MS analysis; assay type: ADME, organism-based; conditions: read-out: Vdss
[2] = mouse, microsomes, 1 h, 1 µM
[3] = Apparent half life in Balb/C mouse at 1.9 mg/kg, iv up to 24 hrs by LC-MS analysis; assay type: ADME, organism-based; conditions: in vivo, read-out: t1/2(app) (converted)
[4] = Clearance in Sprague-Dawley rat blood at 2.9 mg/kg, iv up to 24 hrs by LC-MS analysis; assay type: ADME, organism-based; conditions: whole blood
[5] = Plasma clearance in Balb/C mouse at 1.9 mg/kg, iv up to 24 hrs by LC-MS analysis; assay type: ADME, organism-based
[6] = Half life in Sprague-Dawley rat at 2.9 mg/kg, iv up to 24 hrs by LC-MS analysis; assay type: ADME, organism-based; conditions: in vivo
cells = conditions: Homo sapiens, HEK293, 10 min
physchem [7] = conditions: HCl, pH 2, pH 2
[8] = Volume of distribution at steady state in Balb/C mouse blood at 1.9 mg/kg, iv up to 24 hrs by LC-MS analysis; assay type: ADME, organism-based; conditions: whole blood, read-out: Vdss
[9] = AUC(0 to infinity) in Balb/C mouse plasma at 1.9 mg/kg, iv up to 24 hrs by LC-MS analysis; assay type: ADME, organism-based; set-up: route intravenous, dose 1.9 mg/kg, time <=24
[10] = Volume of distribution at steady state in Sprague-Dawley rat plasma at 2.9 mg/kg, iv up to 24 hrs by LC-MS analysis; assay type: ADME, organism-based; conditions: read-out: Vdss
[11] = mouse, blood, 2 h; at 1 µg/mL
in vitro [12] = conditions: human, Caco-2
in vitro [13] = conditions: human, Caco-2; remark: listed apart in the source
[14] = AUC(0 to infinity) in Sprague-Dawley rat plasma at 2.9 mg/kg, iv up to 24 hrs by LC-MS analysis; assay type: ADME, organism-based; set-up: route intravenous, dose 2.9 mg/kg, time <=24
in vitro [15] = conditions: Balb/C, mouse, plasma; at 1 µg/mL
[16] = Volume of distribution at steady state in Sprague-Dawley rat blood at 2.9 mg/kg, iv up to 24 hrs by LC-MS analysis; assay type: ADME, organism-based; conditions: whole blood, read-out: Vdss
physchem [17] = conditions: PBS, pH 6.5, pH 6.5
[18] = human, microsomes, 1 h, 1 µM
in vitro [19] = conditions: human, Caco-2; remark: listed apart in the source
in vitro [20] = conditions: human, liver microsomes
[21] = Clearance in Sprague-Dawley rat renal blood at 2.9 mg/kg, iv up to 24 hrs by LC-MS analysis; assay type: ADME, organism-based; conditions: whole blood
in vitro [22] = conditions: human, liver microsomes; remark: listed apart in the source
in vivo = conditions: Balb/C, mouse, po, at 1.9 to 3.5 mg/kg
in vitro [23] = conditions: mouse, liver microsomes
[24] = Drug excretion in Sprague-Dawley rat urine at 2.9 mg/kg, iv up to 24 hrs by LC-MS analysis; assay type: ADME, organism-based; conditions: read-out: Drug excretion
in vitro [25] = conditions: Balb/C, mouse, plasma; at 1 µg/mL; remark: listed apart in the source
[26] = molecular target: Sodium channel protein type 5 subunit alpha (Homo sapiens, UniProt Q14524)
[27] = Plasma clearance in Sprague-Dawley rat at 2.9 mg/kg, iv up to 24 hrs by LC-MS analysis; assay type: ADME, organism-based
[28] = Clearance in Balb/C mouse blood at 1.9 mg/kg, iv up to 24 hrs by LC-MS analysis; assay type: ADME, organism-based; conditions: whole blood
in vitro [29] = conditions: human, Caco-2; remark: listed apart in the source
[30] = molecular target: Voltage-gated inwardly rectifying potassium channel KCNH2 (Homo sapiens, UniProt Q12809)
in vitro [31] = conditions: mouse, liver microsomes; remark: listed apart in the source
[32] = octanol/water, pH 7.4
physchem [33] = conditions: octanol/water, pH 7.4

Sodium channel protein type 5 subunit alpha, sequence (Q14524 whole entry): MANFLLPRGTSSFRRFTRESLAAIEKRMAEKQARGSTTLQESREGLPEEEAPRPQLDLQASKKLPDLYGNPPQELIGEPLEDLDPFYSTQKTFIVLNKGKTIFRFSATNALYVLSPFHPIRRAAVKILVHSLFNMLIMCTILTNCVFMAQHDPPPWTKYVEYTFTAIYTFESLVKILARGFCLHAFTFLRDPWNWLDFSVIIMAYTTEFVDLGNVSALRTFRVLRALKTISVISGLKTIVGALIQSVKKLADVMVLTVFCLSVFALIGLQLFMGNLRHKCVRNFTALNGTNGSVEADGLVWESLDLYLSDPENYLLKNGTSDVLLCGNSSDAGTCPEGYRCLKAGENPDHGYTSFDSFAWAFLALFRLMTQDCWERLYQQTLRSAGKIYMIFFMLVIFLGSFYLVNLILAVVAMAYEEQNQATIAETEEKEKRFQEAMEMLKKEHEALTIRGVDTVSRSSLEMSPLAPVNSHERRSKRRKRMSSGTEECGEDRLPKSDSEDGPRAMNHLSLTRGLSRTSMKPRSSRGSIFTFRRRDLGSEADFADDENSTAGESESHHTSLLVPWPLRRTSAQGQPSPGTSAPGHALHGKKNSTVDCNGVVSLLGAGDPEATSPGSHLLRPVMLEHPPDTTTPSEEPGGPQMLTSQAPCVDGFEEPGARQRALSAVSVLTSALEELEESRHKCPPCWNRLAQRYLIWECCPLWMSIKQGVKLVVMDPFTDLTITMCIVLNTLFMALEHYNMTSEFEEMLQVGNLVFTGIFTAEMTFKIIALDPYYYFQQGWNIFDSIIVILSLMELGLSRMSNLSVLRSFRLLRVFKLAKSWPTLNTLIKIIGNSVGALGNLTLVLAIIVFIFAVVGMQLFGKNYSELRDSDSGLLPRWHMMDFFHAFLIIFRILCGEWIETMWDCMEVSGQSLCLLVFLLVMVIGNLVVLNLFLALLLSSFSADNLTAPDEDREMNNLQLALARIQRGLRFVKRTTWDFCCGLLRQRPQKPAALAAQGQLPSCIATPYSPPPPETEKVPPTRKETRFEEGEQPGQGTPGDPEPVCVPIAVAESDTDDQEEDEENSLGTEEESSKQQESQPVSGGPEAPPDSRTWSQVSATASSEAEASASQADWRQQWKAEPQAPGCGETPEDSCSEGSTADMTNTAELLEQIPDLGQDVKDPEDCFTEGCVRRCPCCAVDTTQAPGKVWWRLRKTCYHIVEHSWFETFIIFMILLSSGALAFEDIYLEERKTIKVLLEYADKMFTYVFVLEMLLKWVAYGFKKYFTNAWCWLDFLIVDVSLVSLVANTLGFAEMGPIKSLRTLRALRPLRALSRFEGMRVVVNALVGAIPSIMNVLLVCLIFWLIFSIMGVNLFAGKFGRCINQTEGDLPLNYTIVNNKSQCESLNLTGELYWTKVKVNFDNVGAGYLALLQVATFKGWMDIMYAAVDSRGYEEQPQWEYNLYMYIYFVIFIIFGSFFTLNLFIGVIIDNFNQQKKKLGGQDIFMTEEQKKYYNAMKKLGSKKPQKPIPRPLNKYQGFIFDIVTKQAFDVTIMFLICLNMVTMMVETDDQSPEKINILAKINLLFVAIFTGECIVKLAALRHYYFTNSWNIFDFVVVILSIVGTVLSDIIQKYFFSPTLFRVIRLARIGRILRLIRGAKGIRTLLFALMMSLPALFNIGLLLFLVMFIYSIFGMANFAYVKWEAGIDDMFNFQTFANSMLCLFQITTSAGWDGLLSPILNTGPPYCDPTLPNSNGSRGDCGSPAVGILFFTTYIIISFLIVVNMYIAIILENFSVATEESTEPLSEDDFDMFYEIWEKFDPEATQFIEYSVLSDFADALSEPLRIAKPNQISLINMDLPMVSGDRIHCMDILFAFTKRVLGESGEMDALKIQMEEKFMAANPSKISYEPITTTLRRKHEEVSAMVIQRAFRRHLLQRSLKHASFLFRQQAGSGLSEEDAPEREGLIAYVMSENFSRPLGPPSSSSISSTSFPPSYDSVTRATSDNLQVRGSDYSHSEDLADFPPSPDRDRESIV
Voltage-gated inwardly rectifying potassium channel KCNH2, sequence (Q12809 whole entry): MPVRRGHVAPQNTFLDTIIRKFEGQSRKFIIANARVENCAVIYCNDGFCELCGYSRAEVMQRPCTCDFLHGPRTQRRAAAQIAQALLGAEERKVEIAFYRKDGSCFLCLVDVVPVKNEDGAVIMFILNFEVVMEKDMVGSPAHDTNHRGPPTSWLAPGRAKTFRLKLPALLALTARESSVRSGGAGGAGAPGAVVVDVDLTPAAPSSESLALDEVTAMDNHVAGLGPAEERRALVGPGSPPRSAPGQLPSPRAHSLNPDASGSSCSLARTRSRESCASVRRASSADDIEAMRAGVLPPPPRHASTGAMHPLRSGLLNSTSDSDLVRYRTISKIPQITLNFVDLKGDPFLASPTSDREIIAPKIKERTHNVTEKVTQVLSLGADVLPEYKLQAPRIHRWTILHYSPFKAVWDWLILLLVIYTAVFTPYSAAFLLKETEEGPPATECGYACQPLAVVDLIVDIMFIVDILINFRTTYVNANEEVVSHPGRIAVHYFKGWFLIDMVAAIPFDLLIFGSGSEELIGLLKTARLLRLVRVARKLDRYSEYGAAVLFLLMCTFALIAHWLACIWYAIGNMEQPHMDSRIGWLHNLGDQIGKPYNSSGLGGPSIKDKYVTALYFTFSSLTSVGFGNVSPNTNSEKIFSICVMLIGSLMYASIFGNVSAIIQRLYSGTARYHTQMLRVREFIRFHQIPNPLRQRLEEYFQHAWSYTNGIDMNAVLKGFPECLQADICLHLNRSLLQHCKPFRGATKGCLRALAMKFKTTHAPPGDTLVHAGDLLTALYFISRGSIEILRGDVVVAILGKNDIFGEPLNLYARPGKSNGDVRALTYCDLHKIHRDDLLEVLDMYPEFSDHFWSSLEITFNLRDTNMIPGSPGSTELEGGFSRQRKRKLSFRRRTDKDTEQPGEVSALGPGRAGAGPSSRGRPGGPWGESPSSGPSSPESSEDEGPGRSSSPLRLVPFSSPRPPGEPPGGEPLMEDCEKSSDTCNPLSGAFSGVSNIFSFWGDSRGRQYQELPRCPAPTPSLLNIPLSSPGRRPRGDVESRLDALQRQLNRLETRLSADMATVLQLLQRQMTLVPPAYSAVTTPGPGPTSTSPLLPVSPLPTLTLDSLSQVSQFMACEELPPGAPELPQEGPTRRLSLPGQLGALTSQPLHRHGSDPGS

## COc1ncc(-c2nc(C(=O)NC(=N)N)c(N)nc2N)cn1
[1]
  Vd: 0.7 L/kg
[2]
  CL free: < 7 µL/min/mg
[3]
  half-life: 0.62 h
[4]
  clearance: 78.9 mL/min/kg
[5]
  clearance: 38 mL/min/kg
[6]
  half-life: 6.7 h
cells
  IC50: > 30 µM
Physchem [7]
  solubility kinetic: > 100 µg/mL
[8]
  Vd: 0.7 L/kg
[9]
  AUC(0-inf): 2.7 µM·h
[10]
  Vd: 3.4 L/kg
[11]
  Stabilty: Unstable
In vitro [12]
  Papp B→A at 2 h, 20 µM: 0.26 ×10⁻⁶ cm/s
In vitro [13]
  recovery at 2 h, 20 µM: 97%
[14]
  AUC(0-inf): 3.2 µM·h
In vitro [15]
  fraction unbound at […], 1 ug/ml: 0.4
[16]
  Vd: 5.2 L/kg
Physchem [17]
  solubility kinetic: 12.5 µg/mL (≈ 41.2 µM)
[18]
  CL free: < 7 µL/min/mg
In vitro [19]
  Papp A→B at 2 h, 20 µM: 0.57 ×10⁻⁶ cm/s
In vitro [20]
  half-life at 1 h, 1 µM: > 4.25 h
[21]
  CL renal at 24 h: 29.2 mL/min/kg
In vitro [22]
  microsomal CLint at 1 h, 1 µM: < 7 µL/min/mg
In vivo
  bioavailability at 24 h: 0.81%
In vitro [23]
  microsomal CLint at 1 h, 1 µM: < 7 µL/min/mg
[24]
  dose excreted at 24 h: 36.4%
In vitro [25]
  metabolised at 4 h, 1 ug/ml: < 6%
[26]
  IC50: > 30 µM
[27]
  clearance: 51.3 mL/min/kg
[28]
  clearance: 41 mL/min/kg
In vitro [29]
  recovery at 2 h, 20 µM: 104%
[30]
  IC50: > 30 µM
In vitro [31]
  half-life at 1 h, 1 µM: > 4.25 h

## N=C(N)NC(=O)c1nc(-c2ccco2)c(N2CCCCCC2)nc1N
[2]
  CL free: 687 µL/min/mg
Physchem [7]
  solubility kinetic: 50 µg/mL (≈ 146 µM)
Physchem [17]
  solubility kinetic: 6.3 µg/mL (≈ 18.3 µM)
[18]
  CL free: 687 µL/min/mg
In vitro [20]
  half-life at 1 h, 1 µM: 0.833 h
In vitro [22]
  microsomal CLint at 1 h, 1 µM: 35 µL/min/mg
In vitro [23]
  microsomal CLint at 1 h, 1 µM: 138 µL/min/mg
In vitro [31]
  half-life at 1 h, 1 µM: 0.217 h

## N=C(N)NC(=O)c1nc(-c2cncnc2)c(N2CCCCCC2)nc1N
[2]
  CL free: 27 µL/min/mg
[32]
  logD: 2.8
Physchem [7]
  solubility kinetic: > 100 µg/mL
Physchem [17]
  solubility kinetic: 12.5 µg/mL (≈ 35.2 µM)
[18]
  CL free: 32 µL/min/mg
In vitro [20]
  half-life at 1 h, 1 µM: 1.43 h
In vitro [22]
  microsomal CLint at 1 h, 1 µM: 20 µL/min/mg
In vitro [23]
  microsomal CLint at 1 h, 1 µM: 17 µL/min/mg
In vitro [31]
  half-life at 1 h, 1 µM: 1.67 h

## N=C(N)NC(=O)c1nc(-c2ccc(C(F)(F)F)cc2)c(N)nc1N
[2]
  CL free: 17 µL/min/mg
Physchem [7]
  solubility kinetic: > 100 µg/mL
Physchem [33]
  logD: 2.8
Physchem [17]
  solubility kinetic: 50 µg/mL (≈ 147 µM)
[18]
  CL free: 11 µL/min/mg
In vitro [20]
  half-life at 1 h, 1 µM: > 4.25 h
In vitro [22]
  microsomal CLint at 1 h, 1 µM: < 7 µL/min/mg
In vitro [23]
  microsomal CLint at 1 h, 1 µM: 11 µL/min/mg
In vitro [31]
  half-life at 1 h, 1 µM: 2.55 h

## N=C(N)NC(=O)c1nc(-c2cc3ccccc3s2)c(N2CCCCCC2)nc1N
[2]
  CL free: 1283 µL/min/mg
Physchem [7]
  solubility kinetic: 12.5 µg/mL (≈ 30.5 µM)
Physchem [33]
  logD: > 5.3
Physchem [17]
  solubility kinetic: 3.1 µg/mL (≈ 7.57 µM)
[18]
  CL free: 433 µL/min/mg
In vitro [20]
  half-life at 1 h, 1 µM: 1.03 h
In vitro [22]
  microsomal CLint at 1 h, 1 µM: 28 µL/min/mg
In vitro [23]
  microsomal CLint at 1 h, 1 µM: 83 µL/min/mg
In vitro [31]
  half-life at 1 h, 1 µM: 0.35 h

## N=C(N)NC(=O)c1nc(-c2ccc(C(F)(F)F)cc2)c(N2CCCCCC2)nc1N
[2]
  CL free: 1020 µL/min/mg
Physchem [7]
  solubility kinetic: 25 µg/mL (≈ 59.3 µM)
Physchem [33]
  logD: > 5.3
Physchem [17]
  solubility kinetic: 3.1 µg/mL (≈ 7.36 µM)
[18]
  CL free: 355 µL/min/mg
In vitro [20]
  half-life at 1 h, 1 µM: 1.27 h
In vitro [22]
  microsomal CLint at 1 h, 1 µM: 23 µL/min/mg
In vitro [23]
  microsomal CLint at 1 h, 1 µM: 66 µL/min/mg
In vitro [31]
  half-life at 1 h, 1 µM: 0.433 h
